For 30 molecules, IC50 results are on record in patent US9890171B2, “Aldosterone synthase inhibitors” (Boehringer Ingelheim International GmbH, priority 2014, dated 2018).

Each structure is given as a SMILES string.

Sequence of aldosterone synthase (CYP11B2) (A0A2K5UPL9 1-503): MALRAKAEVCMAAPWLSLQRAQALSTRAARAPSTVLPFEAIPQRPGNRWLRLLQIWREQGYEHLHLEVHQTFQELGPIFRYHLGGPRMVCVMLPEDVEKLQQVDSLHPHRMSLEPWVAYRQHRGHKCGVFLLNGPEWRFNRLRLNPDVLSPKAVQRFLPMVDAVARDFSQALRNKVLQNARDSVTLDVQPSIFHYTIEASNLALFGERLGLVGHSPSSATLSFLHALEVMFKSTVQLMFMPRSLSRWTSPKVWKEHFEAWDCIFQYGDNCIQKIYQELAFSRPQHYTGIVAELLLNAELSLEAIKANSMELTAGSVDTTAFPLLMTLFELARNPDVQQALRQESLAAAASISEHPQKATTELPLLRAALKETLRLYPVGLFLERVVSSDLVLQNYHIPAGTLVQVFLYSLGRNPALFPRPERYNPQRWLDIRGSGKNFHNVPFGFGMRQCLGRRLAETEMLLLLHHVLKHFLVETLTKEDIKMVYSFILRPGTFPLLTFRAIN

This test addresses aldosterone synthase (CYP11B2) (Macaca fascicularis, UniProt A0A2K5UPL9). Briefly: aldosterone synthase inhibition assay. It is filed as biochemical, cynomolgus monkey. The following applies: cynomolgus adrenal gland mitochondria, 2 μM corticosterone, aldosterone quantified by mass spectrometry. The protocol:
The aldosterone synthase inhibition assay employs cynomolgus adrenal gland mitochondria as the source of aldosterone synthase (CYP11B2). Mitochondria are prepared from frozen cynomolgus monkey adrenal glands according to Method A described in by J. D. McGarry et al. (Biochem. J., 1983, 214, 21-28), with a final resuspension in the AT buffer described in R. Yamaguchi et al. (Cell Death and Differentiation, 2007, 14, 616-624), frozen as aliquots in liquid nitrogen and stored at −80° C. until use.
Assays are performed in 96-well format in a final volume of 60 μL/well, containing 100 mM potassium phosphate, pH 7.4, 1% (v/v) DMSO, and additionally, 2 μM of corticosterone and […] of mitochondrial protein. Reactions are started by the addition of NADPH to 1 mM and allowed to proceed for 60-90 minutes at 37° C. Reactions are terminated by the addition of […]. One hundred microliters are then transferred to a glass filter plate and centrifuged at 570×g for 5 minutes and the filtrate is collected. Reaction product aldosterone is quantified by mass spectrometry. To determine the assay blank value (0% activity), NADPH is omitted from some reactions.
Dose dependent inhibition is quantified by the inclusion of compound at various concentrations. Maximum activity (100%) is defined by reactions containing NADPH, but without compound. Activities at each concentration are expressed as a percentage of the maximum activity (y-axis) and plotted against concentration of compound (x-axis) and the concentration corresponding to 50% activity (IC50) determined using the XLFit curve-fitting program using a 4-parameter logistic model.
Molecule `CCS(=O)(=O)NC1COCc2c(-c3ccc4[nH]nc(C)c4c3)cncc21` (single isomer, unassigned) [Compound 69, Ethanesulfonic acid [8-(3-methyl-1H-indazol-5-yl)-3,4-dihydro-1H-pyrano[4,3-c]pyridin-4-yl]-amide] came in with an IC50 of 84.6 nM. This lies in the double-digit nanomolar range. `Cc1cc2cnn(C)c2cc1-c1cncc2c1COCC2N` (single isomer, unassigned) [Compound 70, 8-(1,5-Dimethyl-1H-indazol-6-yl)-3,4-dihydro-1H-pyrano[4,3-c]pyridin-4-ylamine] showed an IC50 of 166 nM.

On to `Cn1ncc2ccc(-c3cncc4c3COCC4N)cc21` (single isomer, unassigned) [Compound 71, 8-(1-Methyl-1H-indazol-6-yl)-3,4-dihydro-1H-pyrano[4,3-c]pyridin-4-ylamine], for which it took 22.2 nM to reach half-maximal inhibition (IC50). As to `CCC(=O)NC1COCc2c(-c3ccc4c(cnn4C)c3)cncc21` (single isomer, unassigned) [Compound 72, N-[8-(1-Methyl-1H-indazol-5-yl)-3,4-dihydro-1H-pyrano[4,3-c]pyridin-4-yl]-propionamide], 2300 nM corresponded to half-maximal inhibition (IC50). Compared with the last molecule, the IC50 is about 100-fold higher.

For the molecule `CCC(=O)NC1COCc2c(-c3ccc4c(cnn4C)c3)cncc21` (single isomer, unassigned) [Compound 73, N-[8-(1-Methyl-1H-indazol-5-yl)-3,4-dihydro-1H-pyrano[4,3-c]pyridin-4-yl]-propionamide], the IC50 was 34.6 nM.

`CC(=O)NC1COCc2c(-c3ccc4cnn(C)c4c3)cncc21` (single isomer, unassigned) [Compound 74, N-[8-(1-Methyl-1H-indazol-6-yl)-3,4-dihydro-1H-pyrano[4,3-c]pyridin-4-yl]-acetamide] came in with an IC50 of 25.6 nM.

`Cn1ncc2ccc(-c3cncc4c3COCC4NC(=O)C3CC3)cc21` (single isomer, unassigned) [Compound 75, Cyclopropanecarboxylic acid [8-(1-methyl-1H-indazol-6-yl)-3,4-dihydro-1H-pyrano[4,3-c]pyridin-4-yl]-amide] came in with an IC50 of 26.4 nM.

Turning to `CCC(=O)NC1COCc2c(-c3ccc4cnn(C)c4c3)cncc21` (single isomer, unassigned) [Compound 76, N-[8-(1-Methyl-1H-indazol-6-yl)-3,4-dihydro-1H-pyrano[4,3-c]pyridin-4-yl]-propionamide], the 50% inhibitory concentration (IC50) was determined as 17.9 nM.

As for `CC(C)C(=O)NC1COCc2c(-c3ccc4cnn(C)c4c3)cncc21` (single isomer, unassigned) [Compound 77, N-[8-(1-Methyl-1H-indazol-6-yl)-3,4-dihydro-1H-pyrano[4,3-c]pyridin-4-yl]-isobutyramide], the IC50 stood at 32.6 nM. `CCS(=O)(=O)NC1COCc2c(-c3cc4c(cnn4C)cc3C)cncc21` (single isomer, unassigned) [Compound 78, Ethanesulfonic acid [8-(1,5-dimethyl-1H-indazol-6-yl)-3,4-dihydro-1H-pyrano[4,3-c]pyridin-4-yl]-amide]: the midpoint of inhibition, the IC50, lay at 2800 nM. Against the preceding molecule, the IC50 is about 86-fold higher. `CCS(=O)(=O)NC1COCc2c(-c3cc4c(cnn4C)cc3C)cncc21` (single isomer, unassigned) [Compound 79, Ethanesulfonic acid [8-(1,5-dimethyl-1H-indazol-6-yl)-3,4-dihydro-1H-pyrano[4,3-c]pyridin-4-yl]-amide] had an IC50 of 653 nM. `Cn1ncc2ccc(-c3cncc4c3COCC4NS(C)(=O)=O)cc21` (single isomer, unassigned) [Compound 80, N-[8-(1-Methyl-1H-indazol-6-yl)-3,4-dihydro-1H-pyrano[4,3-c]pyridin-4-yl]-methanesulfonamide] yielded an IC50 of 2100 nM. As to `Cn1ncc2ccc(-c3cncc4c3COCC4NS(C)(=O)=O)cc21` (single isomer, unassigned) [Compound 81, N-[8-(1-Methyl-1H-indazol-6-yl)-3,4-dihydro-1H-pyrano[4,3-c]pyridin-4-yl]-methanesulfonamide], the IC50 came out at 28.5 nM.

`CCS(=O)(=O)NC1COCc2c(-c3ccc4c(cnn4C)c3)cncc21` (single isomer, unassigned) [Compound 82, Ethanesulfonic acid [8-(1-methyl-1H-indazol-5-yl)-3,4-dihydro-1H-pyrano[4,3-c]pyridin-4-yl]-amide] returned an IC50 of 215 nM. In turn, `CCS(=O)(=O)NC1COCc2c(-c3ccc4cnn(C)c4c3)cncc21` (single isomer, unassigned) [Compound 83, Ethanesulfonic acid [8-(1-methyl-1H-indazol-6-yl)-3,4-dihydro-1H-pyrano[4,3-c]pyridin-4-yl]-amide] returned a concentration for half-maximal inhibition (IC50) of 31.3 nM. Take `O=C1NCCc2cc(-c3cncc4c3COC3(CC3)C4O)ccc21` (single isomer, unassigned) [Compound 84, 6-[4-hydroxyspiro[1,4-dihydropyrano[4,3-c]pyridine-3,1′-cyclopropane]-8-yl]-3,4-dihydro-2H-isoquinolin-1-one]: half-maximal inhibition (IC50) was put at 255 nM. The result for `O=C1NCCc2cc(-c3cncc4c3COC3(CC3)C4O)ccc21` (single isomer, unassigned) [Compound 85, 6-[4-hydroxyspiro[1,4-dihydropyrano[4,3-c]pyridine-3,1′-cyclopropane]-8-yl]-3,4-dihydro-2H-isoquinolin-1-one] reads 90.9 nM; that for `Cc1ncc2ccc(-c3cncc4c3COCC4O)cn12` (single isomer, unassigned) [Compound 86, 8-(3-Methyl-imidazo[1,5-a]pyridin-6-yl)-3,4-dihydro-1H-pyrano[4,3-c]pyridin-4-ol], 494 nM; that for `Cc1ncc2ccc(-c3cncc4c3COCC4O)cn12` (single isomer, unassigned) [Compound 87, 8-(3-Methyl-imidazo[1,5-a]pyridin-6-yl)-3,4-dihydro-1H-pyrano[4,3-c]pyridin-4-ol], 123 nM. In the case of `Cc1ncc2ccc(-c3cncc4c3COC3(CC3)C4O)cn12` (single isomer, unassigned) [Compound 88, 8-(3-methylimidazo[1,5-a]pyridin-6-yl)spiro[1,4-dihydropyrano[4,3-c]pyridine-3,1′-cyclopropane]-4-ol], the IC50 is 128 nM. This IC50 and that of the molecule before are within 1.5-fold of each other. In the case of `Cc1ncc2ccc(-c3cncc4c3COC3(CC3)C4O)cn12` (single isomer, unassigned) [Compound 89, 8-(3-methylimidazo[1,5-a]pyridin-6-yl)spiro[1,4-dihydropyrano[4,3-c]pyridine-3,1′-cyclopropane]-4-ol], the IC50 worked out at 73 nM. For the molecule `Cc1noc2ccc(-c3cncc4c3COCC4O)cc12` (single isomer, unassigned) [Compound 90, 8-(3-Methyl-benzo[d]isoxazol-5-yl)-3,4-dihydro-1H-pyrano[4,3-c]pyridin-4-ol], it took 8.5 nM to reach half-maximal inhibition (IC50). Regarding `Cc1nnc2ccc(-c3cncc4c3COC3(CC3)C4O)cn12` (single isomer, unassigned) [Compound 91, 8-(3-methyl-[1,2,4]triazolo[4,3-a]pyridin-6-yl)spiro[1,4-dihydropyrano[4,3-c]pyridine-3,1′-cyclopropane]-4-ol], the IC50 was 220 nM.

`Cn1ncc2c(F)cc(-c3cncc4c3COC3(CC3)C4O)cc21` (single isomer, unassigned) [Compound 92, 8-(4-fluoro-1-methyl-indazol-6-yl)spiro[1,4-dihydropyrano[4,3-c]pyridine-3,1′-cyclopropane]-4-ol] displayed an IC50 of 11.5 nM. In turn, `Cc1nnc2ccc(-c3cncc4c3COC3(CC3)C4O)cn12` (single isomer, unassigned) [Compound 93, 8-(3-methyl-[1,2,4]triazolo[4,3-a]pyridin-6-yl)spiro[1,4-dihydropyrano[4,3-c]pyridine-3,1′-cyclopropane]-4-ol] had an IC50 of 271 nM. Against the preceding molecule, the IC50 is about 24-fold higher. Turning to `Cc1noc2ccc(-c3cncc4c3COCC4O)cc12` (single isomer, unassigned) [Compound 94, 8-(3-Methyl-benzo[d]isoxazol-5-yl)-3,4-dihydro-1H-pyrano[4,3-c]pyridin-4-ol], half-maximal inhibition (IC50) required 10.1 nM. This IC50 lies about 27-fold lower than the previous one. The result for `Cc1nnc2ccc(-c3cncc4c3COCC4O)cn12` (single isomer, unassigned) [Compound 95, 8-(3-Methyl-[1,2,4]triazolo[4,3-a]pyridin-6-yl)-3,4-dihydro-1H-pyrano[4,3-c]pyridin-4-ol] reads 766 nM; that for `Cn1ncc2c(F)cc(-c3cncc4c3COCC4O)cc21` (single isomer, unassigned) [Compound 96, 8-(4-Fluoro-1-methyl-1H-indazol-6-yl)-3,4-dihydro-1H-pyrano[4,3-c]pyridin-4-ol], 8.1 nM; that for `Cc1nnc2ccc(-c3cncc4c3COCC4O)cn12` (single isomer, unassigned) [Compound 97, 8-(3-Methyl-[1,2,4]triazolo[4,3-a]pyridin-6-yl)-3,4-dihydro-1H-pyrano[4,3-c]pyridin-4-ol], 205 nM.

`OC1COCc2c(-c3ccc4nncn4c3)cncc21` (single isomer, unassigned) [Compound 98, 8-[1,2,4]Triazolo[4,3-a]pyridin-6-yl-3,4-dihydro-1H-pyrano[4,3-c]pyridin-4-ol] yielded a half-maximal inhibitory concentration (IC50) of 1300 nM.
